According to patent publication US9732060B2, “Aminotriazine derivative and pharmaceutical composition comprising the same” (Shionogi & Co., Ltd., priority 2013, dated 2017):
Read-outs that look alike come from different tables or passages of the source.

Legend:
[1] = biological target: CYP1A2 (Homo sapiens (Human), UniProt P05177); assay: CYP inhibition test, CYP1A2; format: in vitro ADME; conditions: pooled human hepatic microsome; 7-ethoxyresorufin-O-deethylation
Description: (§1) Using commercially available pooled human hepatic microsome, and employing, as markers, 7-ethoxyresorufin-O-deethylation (CYP1A2), tolbutamide methyl-hydroxylation (CYP2C9), mephenytoin 4′-hydroxylation (CYP2C19), dextromethorphan O-demethylation (CYP2D6), and terfenedine hydroxylation as typical substrate metabolism reactions of human main five CYP enzyme forms (CYP1A2, 2C9, 2C19, 2D6, 3A4), an inhibitory degree of each metabolite production amount by a test compound was assessed.
(§2) The reaction conditions were as follows: substrate, 0.5 μmol/L ethoxyresorufin (CYP1A2), 100 μmol/L tolbutamide (CYP2C9), 50 μmol/L S-mephenitoin (CYP2C19), 5 μmol/L dextromethorphan (CYP2D6), 1 μmol/L terfenedine (CYP3A4); reaction time, 15 minutes; reaction temperature, 37° C. enzyme, pooled human hepatic microsome 0.2 mg protein/mL; test, drug concentration, 1.0, 5.0, 10, 20 μmol/L (four points).
(§3) Each five kinds of substrates, human hepatic microsome, or a test drug in 50 mmol/L Hepes buffer as a reaction solution was added to a […] at the composition as described above, NADPH, as a cofactor was added to initiate metabolism reactions as markers and, after the incubation at 37° C. for 15 minutes, a methanol/acetonitrile=1/1 (v/v) solution was added to stop the reaction. After the centrifugation at 3000 rpm for 15 minutes, resorufin (CYP1A2 metabolite) in the supernatant was quantified by a fluorescent multilabel counter and tributamide hydroxide (CYP2CP metabolite), mephenytoin 4′hydroxide (CYP2C19 metabolite), […] (CYP2D6 metabolite), and terfenadine alcohol (CYP3A4 metabolite) were quantified by LC/MS/MS.
(§4) Addition of only DMSO being a solvent dissolving a drug to a reaction system was adopted as a control (100%), remaining activity (%) was calculated at each concentration of a test drug added as the solution and IC50 was calculated by reverse presumption by a logistic model using a concentration and an inhibition rate.

[2] = biological target: CYP2C9 (Homo sapiens (Human), UniProt P11712); assay: CYP inhibition test, CYP2C9; format: in vitro ADME; conditions: pooled human hepatic microsome; tolbutamide methyl-hydroxylation
CYP2C9, sequence (P11712 whole entry): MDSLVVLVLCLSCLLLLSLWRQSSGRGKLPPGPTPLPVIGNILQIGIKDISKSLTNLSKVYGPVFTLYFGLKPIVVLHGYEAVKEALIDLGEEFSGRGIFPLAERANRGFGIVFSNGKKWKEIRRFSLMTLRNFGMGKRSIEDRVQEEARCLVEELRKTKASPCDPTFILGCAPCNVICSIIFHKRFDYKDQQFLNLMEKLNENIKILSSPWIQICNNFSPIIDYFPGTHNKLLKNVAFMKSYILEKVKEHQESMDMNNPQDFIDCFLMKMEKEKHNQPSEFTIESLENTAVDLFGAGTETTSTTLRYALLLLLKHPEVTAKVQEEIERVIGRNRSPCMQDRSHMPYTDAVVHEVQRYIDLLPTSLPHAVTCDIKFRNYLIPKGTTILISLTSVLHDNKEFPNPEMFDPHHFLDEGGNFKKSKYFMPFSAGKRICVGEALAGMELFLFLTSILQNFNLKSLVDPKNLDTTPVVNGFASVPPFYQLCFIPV
Description: as §1, §2, §3, §4

[3] = biological target: CYP2C19 (Homo sapiens (Human), UniProt P33261); assay: CYP inhibition test, CYP2C19; format: in vitro ADME; conditions: pooled human hepatic microsome; mephenytoin 4′-hydroxylation
CYP2C19, sequence (P33261 whole entry): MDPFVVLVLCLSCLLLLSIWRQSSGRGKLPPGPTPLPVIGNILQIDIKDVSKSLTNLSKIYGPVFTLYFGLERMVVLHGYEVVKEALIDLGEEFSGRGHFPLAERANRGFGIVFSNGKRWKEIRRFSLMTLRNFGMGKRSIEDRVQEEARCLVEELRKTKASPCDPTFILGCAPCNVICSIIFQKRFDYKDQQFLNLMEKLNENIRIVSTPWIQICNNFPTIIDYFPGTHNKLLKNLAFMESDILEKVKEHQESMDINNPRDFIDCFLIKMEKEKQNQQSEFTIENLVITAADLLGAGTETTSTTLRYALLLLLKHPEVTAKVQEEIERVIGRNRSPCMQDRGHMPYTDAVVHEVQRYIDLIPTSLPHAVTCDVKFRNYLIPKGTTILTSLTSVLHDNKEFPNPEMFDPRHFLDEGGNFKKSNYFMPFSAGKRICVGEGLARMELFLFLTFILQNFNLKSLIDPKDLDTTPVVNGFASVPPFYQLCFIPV
Description: as §1, §2, §3, §4

[4] = biological target: CYP2D6 (Homo sapiens (Human), UniProt P10635); assay: CYP inhibition test, CYP2D6; format: in vitro ADME; conditions: pooled human hepatic microsome; dextromethorphan O-demethylation
CYP2D6, sequence (P10635 whole entry): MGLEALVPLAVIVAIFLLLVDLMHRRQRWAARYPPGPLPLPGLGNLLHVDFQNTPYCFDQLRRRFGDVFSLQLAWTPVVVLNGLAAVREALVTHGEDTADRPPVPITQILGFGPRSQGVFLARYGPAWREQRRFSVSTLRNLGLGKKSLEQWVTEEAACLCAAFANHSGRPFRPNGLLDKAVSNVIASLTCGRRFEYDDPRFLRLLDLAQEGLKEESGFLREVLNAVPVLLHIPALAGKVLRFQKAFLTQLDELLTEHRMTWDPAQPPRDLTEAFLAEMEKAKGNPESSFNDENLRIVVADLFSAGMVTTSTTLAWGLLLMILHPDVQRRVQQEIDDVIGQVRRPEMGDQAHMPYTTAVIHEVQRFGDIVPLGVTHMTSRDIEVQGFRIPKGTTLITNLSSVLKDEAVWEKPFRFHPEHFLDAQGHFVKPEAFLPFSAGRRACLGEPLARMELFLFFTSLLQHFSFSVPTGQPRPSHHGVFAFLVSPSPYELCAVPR
Description: as §1, §2, §3, §4

[5] = biological target: CYP3A4 (Homo sapiens (Human), UniProt P08684); assay: CYP inhibition test, CYP3A4; format: in vitro ADME; conditions: pooled human hepatic microsome; terfenedine hydroxylation
CYP3A4, sequence (P08684 whole entry): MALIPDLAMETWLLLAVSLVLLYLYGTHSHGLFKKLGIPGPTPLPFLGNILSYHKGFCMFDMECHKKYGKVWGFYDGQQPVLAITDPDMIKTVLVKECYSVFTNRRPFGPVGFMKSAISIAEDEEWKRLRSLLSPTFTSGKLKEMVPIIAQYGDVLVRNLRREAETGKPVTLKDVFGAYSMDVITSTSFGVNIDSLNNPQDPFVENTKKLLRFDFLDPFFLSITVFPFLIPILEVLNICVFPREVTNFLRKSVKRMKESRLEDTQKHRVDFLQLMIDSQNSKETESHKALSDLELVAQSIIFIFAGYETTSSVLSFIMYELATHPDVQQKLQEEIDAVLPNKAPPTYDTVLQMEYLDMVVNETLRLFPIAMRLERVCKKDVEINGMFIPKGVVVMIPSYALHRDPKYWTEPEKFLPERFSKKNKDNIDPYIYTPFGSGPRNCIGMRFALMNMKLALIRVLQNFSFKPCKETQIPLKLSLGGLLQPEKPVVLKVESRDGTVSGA
Description: as §1, §2, §3, §4

[6] = Solubility test (1% DMSO, artificial intestinal juice pH 6.8); format: physicochemical; conditions: artificial intestinal juice pH 6.8 with 1% DMSO, 25 °C, fassgf or other biorelevant, kinetic from dmso stock, artificial intestinal juice pH 6.8, 25 degrees Celsius, read-out: Solubulity
Description: The solubility of a compound was determined under a condition in which 1% DMSO was added. 10 mmol/L compound solution was prepared using DMSO, and then 2 μL of the compound solution was added to 198 μL of artificial intestinal juice in pH 6.8 (to 250 mL of 0.2 mol/L potassium dihydrogen phosphate reagent solution was added 118 mL of 0.2 mol/L NaOH reagent solution and water to provide a final volume of 1000 mL). After standing at 25 degrees Celsius for 18 hours, the mixed solution was filtrated with suction. The filtrate was diluted twice with methanol/water (1/1), and then a concentration in the filtration was measured with HPLC or LC/MS/MS by the absolute calibration method.

[7] = Metabolism stability test, pooled human hepatic microsomes; format: in vitro ADME; conditions: remaining rate, human liver microsomes, 30 minutes, compound concentration 0.5 μmol/L
Description: Using commercially available pooled human hepatic microsomes, a test compound is reacted for a constant time, a remaining rate is calculated by comparing a reacted sample and an unreacted sample, thereby, a degree of metabolism in liver is assessed.
A reaction was performed (oxidative reaction) at 37° C. for 0 minute or 30 minutes in the presence of 1 mmol/L NADPH in 0.2 mL of a buffer (50 mmol/L tris-HCl pH 7.4, 150 mmol/L potassium chloride, 10 mmol/L magnesium chloride) containing 0.5 mg protein/mL of human liver microsomes. After the reaction, 50 μL of the reaction solution was added to 100 μL of a methanol/acetonitrile=1/1 (v/v) mixed and centrifuged at 3000 rpm for 15 minutes. The test compound in the supernatant was quantified by LC/MS/MS, and a remaining amount of the test compound after the reaction was calculated, letting a compound amount at 0 minute reaction time to be 100%.
The remaining rate at the compound concentration 0.5 μmol/L are shown below.

[8] = Protein binding test (equilibrium dialysis, unbound fraction in serum); format: in vitro ADME; conditions: 37° C.
Description: The unbound fraction of the present compound in serum was measured using serum of various species.
The reactive conditions are as follows: Evaluation method, Equilibrium dialysis; Reaction time, 24 hours; Reaction temperature, 37° C.; Concentration of the present compound, 2 μg/mL
The test solution was added to each serum and the mixture was agitated to prepare the serum samples at the concentration mentioned above. Each serum sample was added into one side of the cell and phosphate buffered saline (PBS) was added into the other side to perform equilibrium dialysis at 37° C. for 24 hours. Then, the concentration of the compounds in the samples that were obtained from both sides was measured by LC/MS/MS.
The ratio of PBS concentration to serum concentration is expressed as unbound fraction (fu),

[9] = Pharmacokinetic test (BA, CLtot); format: in vivo; conditions: rat, plasma, SD rats
Description: • (1) Animals: SD rats were used • (2) Breeding conditions: SD rats were allowed to freely take solid food and sterilized tap water. • (3) Dose and grouping: orally or intravenously administered at a predetermined dose; grouping was as follows (Dose depends on the compound)
Oral administration: 1 mg/kg (n=2)
The total body clearance (CLtot) was calculated by dividing the dose by the AUC of the intravenous administration group.

[10] = biological target: human P2X3 receptor (Homo sapiens (Human), UniProt P56373); assay: Evaluation of human P2X3 receptor inhibitory activity in the presence of human serum albumin (HSA); format: cell-based; conditions: in the presence of 1% HSA (final concentration)
human P2X3 receptor, sequence (P56373 whole entry): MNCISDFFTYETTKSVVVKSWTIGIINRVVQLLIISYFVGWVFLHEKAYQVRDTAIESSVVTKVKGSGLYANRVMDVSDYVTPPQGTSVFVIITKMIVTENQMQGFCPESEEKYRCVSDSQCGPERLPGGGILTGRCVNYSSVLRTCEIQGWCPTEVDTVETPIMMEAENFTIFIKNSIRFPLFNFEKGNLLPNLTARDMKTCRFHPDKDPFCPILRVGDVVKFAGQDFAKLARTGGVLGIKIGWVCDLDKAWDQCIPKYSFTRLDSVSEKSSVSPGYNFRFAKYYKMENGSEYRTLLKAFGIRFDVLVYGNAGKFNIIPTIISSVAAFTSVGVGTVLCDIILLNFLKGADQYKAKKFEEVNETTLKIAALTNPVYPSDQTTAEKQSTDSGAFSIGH
Description: Stably expressing cell line (C6BU-1 cell transfected with human P2X3 receptor gene (GenBank accession number Y07683; was used. The cells were seeded in a 96-well microtiter plate at a concentration of 8000 cells/well and cultured in the medium (7.0% fetal bovine serum, 7.0% horse serum, 1% antibiotic and antifungal, and 2.0% glutamine in DMEM) for one day at 37° C. under 5% carbon dioxide atmosphere. The medium was replaced with 4 μM Fluo-3-AM solution (20 mM HEPES, 137 mM NaCl, 5.37 mM KCl, 0.9 mM MgCl2, 1.26 mM CaCl2, 5.6 mM D-glucose, 2.5 mM probenecid, 0.5% BSA, and 0.04% Pluronic F-127, pH 7.5) and incubated at 37° C. under 5% dioxide carbon atmosphere for one hour. The plate was washed with washing buffer (20 mM HEPES, 137 mM NaCl, 5.27 mM KCl, 0.9 mM MgCl2, 1.26 mM CaCl2, 5.6 mM D-glucose, 2.5 mM probenecid, pH 7.5), and each well was added with 40 μL of this buffer. The plate was placed in High-Throughput Screening System FDSS 3000 (Hamamatsu Photonics K.K.). Measurement of fluorescence intensity by FDSS 3000 was started, and 40 μL of DMSO solutions containing 1% HSA (final concentrations) different concentrations of the test compound as prepared by dilution with dilution buffer (20 mM HEPES, 137 mM NaCl, 5.27 mM KCl, 0.9 mM MgCl2, 1.26 mM CaCl2, 5.6 mM D-glucose, 2.5 mM probenecid, 0.1% Pluronic F-127, pH 7.5) were dispensed to each well through the built-in automatic dispenser. Five minutes after, 50 nM ATP solution (50 μL) prepared by dilution with the dilution buffer was dispensed through the built-in automatic dispenser, and the measurement of fluorescence intensity was continued for 4 min. For each well, the specific maximum fluorescence intensity was calculated as the ratio of the maximum fluorescence intensity after addition of the ATP solution to the fluorescence intensity at the starting of the measurement. […] FDSS software (Hamamatsu Photonics K.K.) was used for calculation of the specific maximum fluorescence intensity. IC50 was calculated using Microsoft Excel (Microsoft Corporation) and XLfit (idbs Ltd.)

[11] = biological target: Rat P2X3 receptor (Rattus norvegicus (Rat), UniProt P49654); assay: Evaluation of rat P2X3 receptor inhibitory activity in the presence of rat serum albumin (RSA); format: cell-based; conditions: read-out: ratP2X3 + RSA IC50
Rat P2X3 receptor, sequence (P49654 whole entry): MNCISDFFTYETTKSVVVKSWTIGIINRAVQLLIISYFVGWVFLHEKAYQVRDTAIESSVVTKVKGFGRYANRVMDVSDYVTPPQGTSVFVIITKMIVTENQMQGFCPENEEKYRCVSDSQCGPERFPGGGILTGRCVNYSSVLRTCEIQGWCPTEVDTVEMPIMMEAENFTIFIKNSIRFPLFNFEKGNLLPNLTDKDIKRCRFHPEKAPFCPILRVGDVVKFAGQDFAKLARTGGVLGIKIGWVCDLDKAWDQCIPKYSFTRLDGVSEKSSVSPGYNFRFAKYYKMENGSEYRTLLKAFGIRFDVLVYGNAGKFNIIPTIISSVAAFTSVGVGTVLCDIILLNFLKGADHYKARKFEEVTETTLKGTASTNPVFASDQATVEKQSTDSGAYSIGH
Description: Rat P2X3 receptor gene (GenBank accession number NM_031075) was expressed in C6BU-1 cell. The C6BU-1 cells were seeded in a 96-well micro titer plate at a concentration of 2500 cells/well and cultured in the medium (7.0% fetal bovine serum, 7.0% horse serum, and 1% antibiotic and antifungal in DMEM) for one day at 37° C. under 5% carbon dioxide atmosphere. The plasmid was transfected into the cells using transfection reagent FuGENE6 (Promega). The transfected cells were cultured in the medium for one day at 37° C. under 5% carbon dioxide atmosphere. The medium was replaced with 4 μM Fluo-4-AM solution (pH 7.5) containing 20 mM HEPES, 137 mM NaCl, 5.27 mM KCl, 0.9 mM MgCl2, 1.26 mM CaCl2, 5.6 mM D-glucose, 2.5 mM probenecid, 10% RSA, and 0.08% Pluronic F-127, and incubated at 37° C. under 5% dioxide carbon atmosphere for one hour. The plate was washed with washing buffer (20 mM HEPES, 137 mM NaCl, 5.27 mM KCl, 0.9 mM MgCl2, 1.26 mM CaCl2, 5.6 mM D-glucose, 2.5 mM probenecid, pH 7.5), and each well was added with 40 μL of this buffer. The plate was placed in High-Throughput Screening System FDSS 3000 (Hamamatsu Photonics K.K.). Measurement of fluorescence intensity by FDSS 3000 was started, and 40 μL of DMSO solutions containing 1% RSA (final concentrations) and different concentrations of the test compound as prepared by dilution with dilution buffer (20 mM HEPES, 137 mM NaCl, 5.27 mM KCl, 0.9 mM MgCl2, 1.26 mM CaCl2, 5.6 mM D-glucose, 2.5 mM probenecid, 0.1% Pluronic F-127, pH 7.5) were dispensed to each well through the built-in automatic dispenser. Five minutes after, 50 nM ATP solution (50 μL) prepared by dilution with the dilution buffer was dispensed through the built-in automatic dispenser, and the measurement of fluorescence intensity was continued for 4 min. For each well, the specific maximum fluorescence intensity was calculated as the ratio of the maximum fluorescence intensity after addition of the ATP solution to the fluorescence intensity at the starting of the measurement. […] FDSS software (Hamamatsu Photonics K.K.) was used for calculation of the specific maximum fluorescence intensity. IC50 was calculated using Microsoft Excel (Microsoft Corporation) and XLfit (idbs Ltd.).

CYP1A2, sequence (P05177 whole entry): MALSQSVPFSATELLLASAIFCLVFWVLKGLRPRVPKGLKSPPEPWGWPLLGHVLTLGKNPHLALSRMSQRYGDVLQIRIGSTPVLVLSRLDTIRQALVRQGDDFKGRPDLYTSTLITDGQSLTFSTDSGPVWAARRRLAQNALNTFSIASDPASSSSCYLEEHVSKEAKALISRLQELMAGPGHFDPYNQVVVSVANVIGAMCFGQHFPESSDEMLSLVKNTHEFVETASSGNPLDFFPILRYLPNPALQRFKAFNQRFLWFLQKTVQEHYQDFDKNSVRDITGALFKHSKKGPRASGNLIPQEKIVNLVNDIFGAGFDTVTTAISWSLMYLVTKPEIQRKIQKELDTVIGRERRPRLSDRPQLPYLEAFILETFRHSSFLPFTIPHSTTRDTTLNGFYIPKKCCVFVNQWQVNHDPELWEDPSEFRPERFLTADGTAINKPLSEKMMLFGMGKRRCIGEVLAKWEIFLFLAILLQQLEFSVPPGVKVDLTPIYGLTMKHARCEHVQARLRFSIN

| Metabolism Stability [7] [%] | SMILES | solubility at 18 h [6] [µM] | fraction unbound at 24 h, 2 μg/mL [8] | IC50 [10] [nM] | IC50 [11] [nM] | also measured |
| --- | --- | --- | --- | --- | --- | --- |
| 91 | Cc1ccc(Cn2c(=O)n(C[C@H](C)C(=O)O)c(=O)[nH]/c2=N\c2ccc(Oc3cccc(F)n3)cc2)cc1 [Compound I-057] | > 50 | 0.017 | – | – | IC50 [1]: > 20000 nM; IC50 [2]: > 20000 nM; IC50 [3]: > 20000 nM; IC50 [4]: > 20000 nM; IC50 [5]: > 20000 nM; clearance ([9]; intravenous administration 0.5 mg/kg): 22.9 mL/min/kg; AUC ([9]; intravenous administration 0.5 mg/kg, read-out: AUC (iv)): 367 ng·h/mL; AUC ([9]; oral administration 1 mg/kg, read-out: AUC (po)): 487 ng·h/mL |
| 100 | C[C@@H](Cn1c(=O)[nH]/c(=N\c2ccc(Oc3cccc(F)n3)cc2)n(Cc2ccc(F)cc2F)c1=O)C(=O)O [Compound I-029] | – | 0.017 | – | – | – |
| – | Cc1ccc(Cn2c(=O)n(C[C@H](C)C(=O)O)c(=O)[nH]/c2=N\c2ccc(Oc3ncccc3F)cc2)cc1 [Compound I-056] | – | 0.018 | 23 | – | – |
| – | C[C@@H](Cn1c(=O)[nH]/c(=N\c2ccc(Oc3cnccn3)cc2)n(Cc2ccc(Cl)cc2)c1=O)C(=O)O [Compound R-019] | – | 0.018 | – | 8 | – |

| SMILES | Metabolism Stability [7] [%] | solubility at 18 h [6] [µM] | fraction unbound at 24 h, 2 μg/mL [8] | IC50 [10] [nM] | IC50 [11] [nM] | also measured |
| --- | --- | --- | --- | --- | --- | --- |
| O=c1[nH]/c(=N\c2ccc(Oc3ccc(F)cn3)cc2)n(Cc2ccc(Cl)cc2)c(=O)n1[C@H]1C[C@H](C(=O)O)C1 [Compound I-019] | 96 | > 50 | 0.01 | 68 | 11 | – |
